Species: Rattus norvegicus
Experiment: Percent control measured by evaluating the inhibition of 3 nM [125I]PhTX-343-lysine binding to glutamate receptors in rat cortical membranes
Type: cell membranes
Set-up: scale not given: the % may be the effect or the level left
Settings: Membrane

**Q.** Which Activity does the source give for NCC(=O)O here?
**A.** 109%

**Q.** Which Activity does the source give for CNC(CCC(=O)O)C(=O)O (stereo unspecified) here?
**A.** 96%

**Q.** With c1ccc(C2(N3CCCCC3)CCCCC2)cc1 as the compound, how does the Activity read?
**A.** 81%

**Q.** For O=[N+]([O-])c1cc2nc(O)c(O)nc2cc1[N+](=O)[O-], which Activity is on record?
**A.** 102%

**Q.** C[C@]12N[C@H](Cc3ccccc31)c1ccccc12 was tested. Which Activity did it give?
**A.** 92%

**Q.** For N[C@@H](CCC(=O)O)C(=O)O, which Activity is on record?
**A.** 99%

**Q.** Which Activity does the source give for C=C(C)[C@H]1CN[C@H](C(=O)O)[C@H]1CC(=O)O here?
**A.** 103%

**Q.** For N[C@@H](Cn1oc(=O)[nH]c1=O)C(=O)O, which Activity is on record?
**A.** 104%

**Q.** With NC(CCCP(=O)(O)O)C(=O)O (stereo unspecified) as the compound, how does the Activity read?
**A.** 94%

**Q.** For NCCCNCCCCNCCCN, which Activity is on record?
**A.** 14.4%

**Q.** Which Activity does the source give for CCCC(=O)N[C@@H](Cc1ccc(O)cc1)C(=O)NCCCCNCCCNCCCN here?
**A.** 32.7%

— ChEMBL document CHEMBL1125606, “Synthesis and binding of [125I2]philanthotoxin-343, [125I2]philanthotoxin-343-lysine, and [125I2]philanthotoxin-343-arginine to rat brain membranes” (J Med Chem, 1991)
